We go through two compounds from patent publication US20070010556A1, “Thiophene derivatives as chk 1 inhibitors” (ASTRAZENECA AB, priority 2004, published 2007).

Each structure is given as a SMILES string.

The assay deals with T1, CHK1 kinase (Homo sapiens, UniProt O14757).
T1 construct: The kinase domain is expressed in baculovirus and purified by the GST tag; GST; made in house
T1 sequence (O14757 9-265 limits assumed): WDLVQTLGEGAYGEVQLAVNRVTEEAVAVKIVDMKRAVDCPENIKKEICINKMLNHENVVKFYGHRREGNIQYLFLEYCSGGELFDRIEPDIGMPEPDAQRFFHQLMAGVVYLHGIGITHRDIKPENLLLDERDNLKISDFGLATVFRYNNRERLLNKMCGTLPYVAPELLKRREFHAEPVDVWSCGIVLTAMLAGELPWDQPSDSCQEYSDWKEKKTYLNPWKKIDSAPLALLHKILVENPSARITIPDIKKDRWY
In words: Checkpoint Kinase 1 Assay (Scintillation Proximity Assay). Type of assay: biochemical. As to the method:
Checkpoint Kinase 1 Assay: This in vitro assay measures the inhibition of CHK1 kinase by compounds. The kinase domain is expressed in baculovirus and purified by the GST tag. Purified protein and biotinylated peptide substrate (Cdc25C) is then used in a 384 well automated Scintillation Proximity Assay (SPA). Specifically, peptide, enzyme and reaction buffer are mixed and aliquoted into a 384 well plate containing dilution series of compounds and controls. Cold and hot ATP are then added to initiate the reaction. After 2 hours, a SPA bead slurry, […] and EDTA are added to stop the reaction and capture the biotinylated peptide. Plates are then counted on a Topcount. Data is analyzed and IC50s determined for individual compounds.

Usually IC50 stands for the midpoint of a concentration-inhibition curve. The low end stands for inhibition by little substance, the high end for a need for much substance. `COc1ccc(F)cc1-c1cc(C(=O)N[C@H]2CCCCNC2)c(NC(N)=O)s1` [Example 97] had an IC50 of 140 pM.

Compound `O=C(Nc1cnccn1)Nc1cc(-c2ccc(Cl)cc2)sc1C(=O)N[C@H]1CCCNC1` [Example 263, 5-(4-Chloro-phenyl)-3-(3-pyrazin-2-yl-ureido)-thiophene-2-carboxylic acid (S)-piperidin-3-ylamide] registered an IC50 of 120 pM.
